Assay results published in ChEMBL document CHEMBL1144085, “DNA polymerase beta inhibitors from Sandoricum koetjape” (J Nat Prod, 1999).
The source made the active and inactive calls. No cut-off for these calls is given here.

Key:
DNA polymerase beta = DNA polymerase beta (Rattus norvegicus, UniProt P06766); assay: (§1) Inhibition of rat DNA polymerase beta
[1] = target: DNA polymerase beta (Rattus norvegicus) (UniProt P06766); assay: Activity of rat DNA polymerase beta using variable levels of [3H]TTP substrate by Lineweaver-Burke plot
[2] = target: DNA polymerase beta (Rattus norvegicus) (UniProt P06766); assay: Activity of rat DNA polymerase beta using variable levels of DNA template primer by Lineweaver-Burke plot
[3] = target: DNA polymerase beta (Rattus norvegicus) (UniProt P06766); assay: as §1

SMILES | IC50 (DNA polymerase beta) [µM] | Kii [1] [µM] | Kis [1] [µM] | Kii [2] [µM] | Kis [2] [µM] | Activity [3]
CO/N=C1/CC[C@]2(C)[C@H]3CC=C4[C@@H]5C[C@](C)(C(=O)O)CC[C@]5(C)CC[C@@]4(C)[C@]3(C)CC[C@H]2C1(C)C | 36 | 35 | 73 | 35 | 9.1 | 
CC1(C)[C@H](O)CC[C@]2(C)[C@H]3CC=C4[C@@H]5C[C@](C)(C(=O)O)CC[C@]5(C)CC[C@@]4(C)[C@]3(C)CC[C@@H]12 [KATONIC ACID] | 36 | 24 | 60 | 11 | 4.2 | 
CC1(C)/C(=N\OCc2ccccc2)CC[C@]2(C)[C@H]3CC=C4[C@@H]5C[C@](C)(C(=O)O)CC[C@]5(C)CC[C@@]4(C)[C@]3(C)CC[C@@H]12 | 35 | 22 | 69 | 24 | 37 | 
CC1(C)C(=O)CC[C@]2(C)[C@H]3CC=C4[C@@H]5C[C@](C)(C(N)=O)CC[C@]5(C)CC[C@@]4(C)[C@]3(C)CC[C@@H]12 |  |  |  |  |  | inactive
CC(C)(C)NC(=O)[C@]1(C)CC[C@]2(C)CC[C@]3(C)C(=CC[C@@H]4[C@@]5(C)CCC(=O)C(C)(C)[C@@H]5CC[C@]43C)[C@@H]2C1 |  |  |  |  |  | inactive
CC1(C)/C(=N\O)CC[C@]2(C)[C@H]3CC=C4[C@@H]5C[C@](C)(C(=O)O)CC[C@]5(C)CC[C@@]4(C)[C@]3(C)CC[C@@H]12 | 16 | 10 | 16 |  |  | 
COC(=O)[C@]1(C)CC[C@]2(C)CC[C@]3(C)C(=CC[C@@H]4[C@@]5(C)CCC(=O)C(C)(C)[C@@H]5CC[C@]43C)[C@@H]2C1 |  |  |  |  |  | inactive
CCCCNC(=O)[C@]1(C)CC[C@]2(C)CC[C@]3(C)C(=CC[C@@H]4[C@@]5(C)CCC(=O)C(C)(C)[C@@H]5CC[C@]43C)[C@@H]2C1 |  |  |  |  |  | inactive
CC1(C)C(=O)CC[C@]2(C)[C@H]3CC=C4[C@@H]5C[C@](C)(C(=O)O)CC[C@]5(C)CC[C@@]4(C)[C@]3(C)CC[C@@H]12 | 22 | 9.1 | 60 | 50 | 5.5 | 
COC(=O)[C@]1(C)CC[C@]2(C)CC[C@]3(C)C(=CC[C@@H]4[C@@]5(C)CC[C@@H](O)C(C)(C)[C@@H]5CC[C@]43C)[C@@H]2C1 |  |  |  |  |  | inactive
C=C(C)[C@@H]1CC[C@]2(C)[C@H](CC=C3[C@@H]4C[C@@](C)(C(=O)O)CC[C@]4(C)CC[C@]32C)[C@@]1(C)CCC(=O)O [KOETJAPIC ACID] | 20 | 11 | 24 | 18 | 5.6 | 
CCOC(=O)[C@]1(C)CC[C@]2(C)CC[C@]3(C)C(=CC[C@@H]4[C@@]5(C)CCC(=O)C(C)(C)[C@@H]5CC[C@]43C)[C@@H]2C1 |  |  |  |  |  | inactive
CCN(CC)C(=O)[C@]1(C)CC[C@]2(C)CC[C@]3(C)C(=CC[C@@H]4[C@@]5(C)CCC(=O)C(C)(C)[C@@H]5CC[C@]43C)[C@@H]2C1 |  |  |  |  |  | inactive
